Experiment [1] concerns the target T1, recombinant integrin α4β1 (Homo sapiens, UniProt P05556+P13612).
T1 construct: purchased R&D Systems 5397-A3-050
Briefly: Integrin α4β1—VCAM-1 competition ELISA. In kind it is binding. To be noted: read-out: ELISA a4b1 Assay IC50. The method, boiled down:
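Compound dilutions added to coated plate and shaken at room temperature for 2 h (300 rpm) to binding equilibrium. Wash buffer: 50 mM Tris, 100 mM NaCl, 1 mM MnCl2, 0.05% Tween. Bound Fc-tagged ligand detected with anti-human IgG Fc-HRP, 1 h at room temperature.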
(In general: In an ELISA, binding on a coated surface is turned into a signal by an enzyme label.)

Experiment [2] has as its target T2, recombinant integrin α4β7 (Homo sapiens, UniProt P13612+P26010, DEL724-798).
T2 construct: purchased R&D Systems 5397-A3-050
T2 sequence (P13612 34-970 limits assumed): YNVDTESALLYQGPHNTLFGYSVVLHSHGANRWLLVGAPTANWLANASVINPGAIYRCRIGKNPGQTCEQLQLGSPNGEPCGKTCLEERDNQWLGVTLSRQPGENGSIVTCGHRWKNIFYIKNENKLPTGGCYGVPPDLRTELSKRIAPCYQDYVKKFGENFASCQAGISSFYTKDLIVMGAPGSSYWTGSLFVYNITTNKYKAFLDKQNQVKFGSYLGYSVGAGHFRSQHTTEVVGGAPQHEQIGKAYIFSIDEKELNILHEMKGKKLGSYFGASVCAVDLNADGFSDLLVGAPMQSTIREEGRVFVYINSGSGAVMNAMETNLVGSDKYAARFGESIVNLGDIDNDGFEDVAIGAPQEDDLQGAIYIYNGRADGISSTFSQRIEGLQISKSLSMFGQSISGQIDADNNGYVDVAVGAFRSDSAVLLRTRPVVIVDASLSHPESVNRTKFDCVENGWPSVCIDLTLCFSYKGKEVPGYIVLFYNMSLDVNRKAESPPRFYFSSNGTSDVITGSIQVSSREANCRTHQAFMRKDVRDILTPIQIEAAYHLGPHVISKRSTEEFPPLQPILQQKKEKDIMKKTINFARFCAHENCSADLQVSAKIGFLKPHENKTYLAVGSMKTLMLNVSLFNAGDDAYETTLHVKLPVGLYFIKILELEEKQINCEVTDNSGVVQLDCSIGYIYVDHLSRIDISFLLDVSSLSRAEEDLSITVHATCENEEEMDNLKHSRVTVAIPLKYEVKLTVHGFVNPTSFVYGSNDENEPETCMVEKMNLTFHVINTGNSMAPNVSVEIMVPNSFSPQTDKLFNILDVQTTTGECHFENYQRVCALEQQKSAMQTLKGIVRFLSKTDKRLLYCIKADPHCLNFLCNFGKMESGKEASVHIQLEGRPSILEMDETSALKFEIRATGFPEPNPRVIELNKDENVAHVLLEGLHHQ
T2 sequence (P26010 20-723 limits assumed): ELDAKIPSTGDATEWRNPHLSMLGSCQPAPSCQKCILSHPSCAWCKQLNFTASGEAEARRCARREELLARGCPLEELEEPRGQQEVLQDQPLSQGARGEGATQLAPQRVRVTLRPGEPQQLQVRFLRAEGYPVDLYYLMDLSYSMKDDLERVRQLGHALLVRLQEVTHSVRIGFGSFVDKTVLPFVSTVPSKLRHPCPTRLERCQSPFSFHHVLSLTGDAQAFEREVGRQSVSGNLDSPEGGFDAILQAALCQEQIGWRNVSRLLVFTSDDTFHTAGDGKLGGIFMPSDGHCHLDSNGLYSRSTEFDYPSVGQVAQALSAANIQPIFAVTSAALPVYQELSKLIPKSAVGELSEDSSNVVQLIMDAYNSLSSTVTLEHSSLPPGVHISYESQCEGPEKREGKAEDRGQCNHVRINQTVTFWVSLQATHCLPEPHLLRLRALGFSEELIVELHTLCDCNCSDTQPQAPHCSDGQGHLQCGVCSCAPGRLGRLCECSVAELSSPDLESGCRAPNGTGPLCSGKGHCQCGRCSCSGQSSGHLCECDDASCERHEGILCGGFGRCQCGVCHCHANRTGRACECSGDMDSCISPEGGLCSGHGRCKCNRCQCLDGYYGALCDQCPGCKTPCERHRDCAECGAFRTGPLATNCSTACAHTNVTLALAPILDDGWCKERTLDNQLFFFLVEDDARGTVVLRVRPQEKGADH
Briefly: Integrin α4β7—MAdCAM-1 ELISA competition assay. In kind it is binding. The note with it: for ELISA Assay Ratio b1/b7: ratio of a4b1 to a4b7 ELISA IC50; for IC50: read-out: ELISA a4b7 Assay IC50.

The target of experiment [3] is T3, integrin α4β7 (RPMI8866 human cells adhering to MAdCAM-1) (Homo sapiens, UniProt P13612+P26010).
T3 construct: RMP18866 cells, which express integrin α4β7; host or cells: RPMI8866
T3 sequence (P13612 34-1032): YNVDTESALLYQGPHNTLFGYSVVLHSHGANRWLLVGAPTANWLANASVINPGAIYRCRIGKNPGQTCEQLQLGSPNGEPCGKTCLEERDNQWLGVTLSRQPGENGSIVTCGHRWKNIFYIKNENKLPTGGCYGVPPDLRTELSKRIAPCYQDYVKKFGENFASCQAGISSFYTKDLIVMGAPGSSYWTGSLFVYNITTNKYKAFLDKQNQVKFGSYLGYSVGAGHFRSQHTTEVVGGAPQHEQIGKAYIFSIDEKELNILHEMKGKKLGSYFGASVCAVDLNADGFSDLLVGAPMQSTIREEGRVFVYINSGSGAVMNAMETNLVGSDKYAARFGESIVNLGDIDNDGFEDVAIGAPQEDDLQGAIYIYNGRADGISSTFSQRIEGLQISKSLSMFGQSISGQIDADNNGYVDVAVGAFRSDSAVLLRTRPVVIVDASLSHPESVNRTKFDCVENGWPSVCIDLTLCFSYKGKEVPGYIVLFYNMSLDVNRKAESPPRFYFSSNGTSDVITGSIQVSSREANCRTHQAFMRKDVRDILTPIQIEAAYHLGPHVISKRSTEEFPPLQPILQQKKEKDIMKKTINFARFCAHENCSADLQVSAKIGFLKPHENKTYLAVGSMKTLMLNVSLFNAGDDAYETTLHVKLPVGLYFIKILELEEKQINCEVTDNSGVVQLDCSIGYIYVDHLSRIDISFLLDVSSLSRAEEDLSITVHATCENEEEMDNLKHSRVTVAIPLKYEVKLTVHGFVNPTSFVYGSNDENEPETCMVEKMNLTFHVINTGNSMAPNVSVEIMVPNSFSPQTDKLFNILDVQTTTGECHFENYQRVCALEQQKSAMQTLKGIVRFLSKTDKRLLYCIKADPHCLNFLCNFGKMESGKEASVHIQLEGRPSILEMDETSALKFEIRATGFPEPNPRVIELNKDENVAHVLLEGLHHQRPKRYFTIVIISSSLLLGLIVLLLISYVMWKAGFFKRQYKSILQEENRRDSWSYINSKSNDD
T3 sequence (P26010 20-798): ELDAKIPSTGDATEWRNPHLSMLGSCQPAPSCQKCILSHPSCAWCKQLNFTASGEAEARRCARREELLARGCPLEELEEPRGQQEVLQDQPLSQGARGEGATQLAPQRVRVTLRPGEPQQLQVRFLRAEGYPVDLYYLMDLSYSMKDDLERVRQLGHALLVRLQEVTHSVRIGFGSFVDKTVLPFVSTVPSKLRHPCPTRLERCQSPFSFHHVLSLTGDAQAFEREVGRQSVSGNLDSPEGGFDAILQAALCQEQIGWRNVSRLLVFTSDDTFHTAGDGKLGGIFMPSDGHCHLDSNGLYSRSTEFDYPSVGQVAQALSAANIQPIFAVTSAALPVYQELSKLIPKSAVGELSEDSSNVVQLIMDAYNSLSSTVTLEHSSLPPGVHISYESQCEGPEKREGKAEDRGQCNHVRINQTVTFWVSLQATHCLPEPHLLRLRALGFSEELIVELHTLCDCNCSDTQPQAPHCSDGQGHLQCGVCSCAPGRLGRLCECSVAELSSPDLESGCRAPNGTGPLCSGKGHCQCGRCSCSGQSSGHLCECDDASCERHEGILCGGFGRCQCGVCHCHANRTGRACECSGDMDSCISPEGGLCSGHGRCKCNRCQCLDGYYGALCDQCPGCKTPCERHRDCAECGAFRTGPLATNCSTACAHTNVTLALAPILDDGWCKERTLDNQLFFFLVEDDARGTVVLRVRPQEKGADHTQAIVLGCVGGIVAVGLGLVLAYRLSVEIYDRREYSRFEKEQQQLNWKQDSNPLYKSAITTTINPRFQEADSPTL
Briefly: Integrin α4β7-MAdCAM cell adhesion assay (RPMI8866 cells). To be noted: RPMI8866 cells adhering to MAdCAM; read-out: RPMI8866 Adhesion α4β7/MAdCAM IC50. The class given is cell-based. How it is done:
Integrin α4β7-MAdCAM Cell Adhesion Assay
RPMI8866 cells were resuspended at 10 million cells/ml in PBS containing […] and incubated at 37° C. for 30 min in a 50 ml tube. […] The plate was emptied by inverting and blotting on paper towels and washed manually twice with PBS. 100 μl PBS was then added to each well. […] To calculate the dose response, the fluorescence value of control wells not containing cells was subtracted from each test well.

T1 sequence (P05556 21-728 limits assumed, one chain of several): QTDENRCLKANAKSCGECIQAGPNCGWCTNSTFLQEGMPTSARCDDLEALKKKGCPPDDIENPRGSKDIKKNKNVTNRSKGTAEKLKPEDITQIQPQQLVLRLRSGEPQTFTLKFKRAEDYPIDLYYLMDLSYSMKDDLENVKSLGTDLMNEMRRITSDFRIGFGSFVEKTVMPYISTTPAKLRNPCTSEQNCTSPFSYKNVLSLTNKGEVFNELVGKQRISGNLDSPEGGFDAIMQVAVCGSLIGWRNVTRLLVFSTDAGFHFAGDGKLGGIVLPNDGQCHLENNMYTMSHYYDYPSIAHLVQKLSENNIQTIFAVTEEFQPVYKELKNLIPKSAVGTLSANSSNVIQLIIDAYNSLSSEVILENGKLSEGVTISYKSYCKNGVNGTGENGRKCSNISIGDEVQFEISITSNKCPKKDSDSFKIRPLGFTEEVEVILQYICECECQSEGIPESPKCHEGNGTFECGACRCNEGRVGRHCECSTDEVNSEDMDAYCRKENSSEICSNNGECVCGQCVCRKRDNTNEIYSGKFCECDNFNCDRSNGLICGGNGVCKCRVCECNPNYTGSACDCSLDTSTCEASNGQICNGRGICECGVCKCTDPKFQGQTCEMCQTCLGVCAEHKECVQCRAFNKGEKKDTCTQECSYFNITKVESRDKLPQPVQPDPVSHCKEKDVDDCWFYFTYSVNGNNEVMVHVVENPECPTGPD

`CC(C)C[C@@H]1NC(=O)C[C@H](CCCCN)NC(=O)C2(Cc3ccccc3C2)NC(=O)[C@@H]2CCCN2[C@H](C(=O)NC(C)(C)C)[C@H](C)NC(=O)[C@H]([C@@H](C)O)NC(=O)[C@H](CC(=O)O)NC1=O` [Compound 288]: the IC50 in experiment [1] turned out to be 1.66 µM. Also, in experiment [2], the “ELISA Assay Ratio b1/b7” value worked out at 12.2 and the IC50 amounted to 0.136 µM.
With `CC(C)C[C@@H]1NC(=O)C[C@H](CCCCN)NC(=O)CN(Cc2ccccc2)C(=O)[C@@H]2CCCN2[C@H](C(=O)NC(C)(C)C)[C@H](C)NC(=O)[C@H]([C@@H](C)O)NC(=O)[C@H](CC(=O)O)NC1=O` [Compound 296], the IC50 in experiment [1] stood at 14.7 µM. Moreover, the “ELISA Assay Ratio b1/b7” value in experiment [2] came to 94.8.
Take `CC(C)C[C@@H]1NC(=O)c2ccc(-c3ccncc3)c(c2)CNC(=O)[C@H](Cc2ccc(O)cc2)NC(=O)[C@@H]2CCCN2[C@H](C(=O)NC(C)(C)C)[C@H](C)NC(=O)[C@H]([C@@H](C)O)NC(=O)[C@H](CC(=O)O)NC1=O` [Compound 337]: the IC50 in experiment [1] came to 0.177 µM. Besides, in experiment [2], the “ELISA Assay Ratio b1/b7” value was 2.9 and the IC50 is 0.061 µM.
Taken in the same sequence, the figures for `CC(C)C[C@@H]1NC(=O)c2ccc(-c3cccc4ncccc34)c(c2)CNC(=O)[C@@H]2CCCN2[C@H](C(=O)NC(C)(C)C)[C@H](C)NC(=O)[C@H]([C@@H](C)O)NC(=O)[C@H](CC(=O)O)NC1=O` [Compound 347] were 0.03 µM, 1.3 and 0.023 µM.
For `CC(C)C[C@@H]1NC(=O)c2ccc(-c3ccccc3N3CCNCC3)c(c2)CNC(=O)[C@@H]2CCCN2[C@H](C(=O)NC(C)(C)C)[C@H](C)NC(=O)[C@H]([C@@H](C)O)NC(=O)[C@H](CC(=O)O)NC1=O` [Compound 348], in that order: 0.041 µM, 1.5 and 0.027 µM.
Turning to `CC(C)C[C@@H]1NC(=O)c2cccc(c2)CNC(=O)[C@@H]2CCCN2[C@H](C(=O)NC(C)(C)C)[C@H](C)NC(=O)[C@H]([C@@H](C)O)NC(=O)[C@H](CC(=O)O)NC1=O` [Compound 358], the IC50 in experiment [1] is 1.11 µM. Besides, in experiment [2], the “ELISA Assay Ratio b1/b7” value stood at 8.7 and the IC50 came out at 0.127 µM.
For `CC(C)C[C@@H]1NC(=O)c2cc(cc(-c3ccncc3)c2)CNC(=O)[C@@H]2CCCN2[C@H](C(=O)NC(C)(C)C)[C@H](C)NC(=O)[C@H]([C@@H](C)O)NC(=O)[C@H](CC(=O)O)NC1=O` [Compound 362], the IC50 in experiment [1] came out at 0.238 µM. In experiment [2], the “ELISA Assay Ratio b1/b7” value is listed as 5.6 and the IC50 stood at 0.043 µM.
As to `CC(C)C[C@@H]1NC(=O)c2ccc(-c3ccc(N4CCN(C(=O)C5(C(=O)N6CCN(c7ccc(-c8ccc9cc8CNC(=O)[C@@H]8CCCN8[C@H](C(=O)NC(C)(C)C)[C@H](C)NC(=O)[C@H]([C@@H](C)O)NC(=O)[C@H](CC(=O)O)NC(=O)[C@H](CC(C)C)NC9=O)cc7)CC6)CC5)CC4)cc3)c(c2)CNC(=O)[C@@H]2CCCN2[C@H](C(=O)NC(C)(C)C)[C@H](C)NC(=O)[C@H]([C@@H](C)O)NC(=O)[C@H](CC(=O)O)NC1=O` [Compound 459], in experiment [3], the IC50 is 0.033 µM.
Still for that read-out and setting: next, `CC(C)C[C@@H]1NC(=O)c2ccc(-c3ccc(N4CCN(C(=O)c5ccc(C(=O)N6CCN(c7ccc(-c8ccc9cc8CNC(=O)[C@@H]8CCCN8[C@H](C(=O)NC(C)(C)C)[C@H](C)NC(=O)[C@H]([C@@H](C)O)NC(=O)[C@H](CC(=O)O)NC(=O)[C@H](CC(C)C)NC9=O)cc7)CC6)c6ccccc56)CC4)cc3)c(c2)CNC(=O)[C@@H]2CCCN2[C@H](C(=O)NC(C)(C)C)[C@H](C)NC(=O)[C@H]([C@@H](C)O)NC(=O)[C@H](CC(=O)O)NC1=O` [Compound 463]: 0.021 µM; `CC(C)C[C@@H]1NC(=O)c2ccc(-c3ccc(N4CCN(C(=O)c5cccc(C(=O)N6CCN(c7ccc(-c8ccc9cc8CNC(=O)[C@@H]8CCCN8[C@H](C(=O)NC(C)(C)C)[C@H](C)NC(=O)[C@H]([C@@H](C)O)NC(=O)[C@H](CC(=O)O)NC(=O)[C@H](CC(C)C)NC9=O)cc7)CC6)n5)CC4)cc3)c(c2)CNC(=O)[C@@H]2CCCN2[C@H](C(=O)NC(C)(C)C)[C@H](C)NC(=O)[C@H]([C@@H](C)O)NC(=O)[C@H](CC(=O)O)NC1=O` [Compound 472]: 0.08 µM.

The record behind these values is patent publication US11713338B2, “Cyclic peptides multimers targeting α-4-β-7 integrin” (priority 2016, dated 2023).
